Assay results as given in PubChem BioAssay (NCI).
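Growth conditions: 96-well plates. Treatment: test compound, 48 hours, 5 concentrations. Analysis: linear interpolation between bracketing concentrations; unreached endpoints set to highest concentration. TGI: concentration producing complete growth inhibition.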

Key:
Test in all cases: inhibition of tumour cell growth, NCI panel, 48 h
SW-620 colon = system: SW-620 colon
SK-MEL-5 melanoma = system: SK-MEL-5 melanoma
SK-OV-3 ovarian = system: SK-OV-3 ovarian
KM12 colon = system: KM12 colon
SN12C renal = system: SN12C renal
SK-MEL-2 melanoma = system: SK-MEL-2 melanoma
SR leukemia = system: SR leukemia
A498 renal = system: A498 renal
TK-10 renal = system: TK-10 renal
CCRF-CEM leukemia = system: CCRF-CEM leukemia
IGROV1 ovarian = system: IGROV1 ovarian
COLO 205 colon = system: COLO 205 colon
NCI-H226 lung = system: NCI-H226 lung
RPMI-8226 leukemia = system: RPMI-8226 leukemia
SF-268 CNS = system: SF-268 CNS
HCT-15 colon = system: HCT-15 colon
HOP-62 NSCLC = system: HOP-62 NSCLC
M14 melanoma = system: M14 melanoma
MDA-N = system: MDA-N
HL-60(TB) leukemia = system: HL-60(TB) leukemia

Row | Compound | TGI (SW-620 colon) [µM] | TGI (SK-MEL-5 melanoma) [µM] | TGI (SK-OV-3 ovarian) [µM] | TGI (KM12 colon) [µM] | TGI (SN12C renal) [µM] | TGI (SK-MEL-2 melanoma) [µM] | TGI (SR leukemia) [µM] | TGI (A498 renal) [µM] | TGI (TK-10 renal) [µM] | TGI (CCRF-CEM leukemia) [µM] | TGI (IGROV1 ovarian) [µM] | TGI (COLO 205 colon) [µM] | TGI (NCI-H226 lung) [µM] | TGI (RPMI-8226 leukemia) [µM] | TGI (SF-268 CNS) [µM] | TGI (HCT-15 colon) [µM] | TGI (HOP-62 NSCLC) [µM] | TGI (M14 melanoma) [µM] | TGI (MDA-N) [µM] | TGI (HL-60(TB) leukemia) [µM]
1 | O=C1C2CCCCC2C(=O)N1n1c(-c2ccccc2)n[nH]c1=O (centres undefined) | > 100 | > 100 | > 100 | > 100 | > 100 | > 100 | > 100 | > 100 | > 100 | > 100 | > 100 | > 100 | > 100 | > 100 | > 100 | > 100 | > 100 | > 100 | > 100 | 
2 | O=c1oc2ccccc2c(O)c1C(c1cnc2ccccc2c1)c1c(O)c2ccccc2oc1=O | > 100 | > 100 |  | > 100 | 76.6 | > 100 |  | > 100 | > 100 | > 100 | > 100 | > 100 | > 100 | > 100 | 67.2 | > 100 | > 100 |  | 69.5 | 90
3 | CC(C)(Oc1ccc(Cl)cc1)C(=O)N(C(=O)N1CCCCC1)c1ccccc1 | > 100 | 24.2 | 40.4 | 41.2 | 47 | 32 |  | 32.8 |  | > 100 | 22.3 | > 100 | 51 | > 100 | 56.7 | 24.6 |  | 52.1 | > 100 | 21
4 | C=CCC1(Sc2ccccn2)Sc2ccc3ccccc3c2-c2c(ccc3ccccc23)S1 | > 100 | > 100 | > 100 | > 100 | > 100 | > 100 | > 100 | > 100 | > 100 | > 100 | > 100 | > 100 | > 100 |  | > 100 | > 100 | > 100 | > 100 |  | > 100
5 | CC(=O)Nc1ccc(C(=O)NN2C(=O)CSC2c2ccc(O)cc2)cc1 (centres undefined) | > 100 | > 100 | > 100 | > 100 | > 100 | > 100 |  | > 100 | > 100 | > 100 | > 100 | > 100 | > 100 | > 100 | > 100 | > 100 | > 100 | > 100 | > 100 | > 100
6 | CC(O)CN1c2ccccc2Sc2ccccc21 (centres undefined) | > 100 | > 100 | > 100 | > 100 | > 100 |  |  | > 100 | > 100 | > 100 | > 100 | > 100 | > 100 |  | > 100 | > 100 | > 100 | > 100 | > 100 | 
7 | O=c1[nH]c(=O)n(C2CC(O)C(CO)O2)cc1C(F)(C(F)(F)F)C(F)(F)F (centres undefined) | > 100 | > 100 | > 100 | > 100 | > 100 | > 100 | > 100 | > 100 | > 100 | > 100 | > 100 | > 100 | > 100 | > 100 | > 100 | > 100 | > 100 | > 100 |  | > 100
8 | CN/C=C(\C(=O)c1ccc(OC)c(OC)c1)c1ccc(OC)cc1 | 37.5 | 35 | > 100 | 29.5 | 31.7 | 31.5 | 60.7 | 28.2 | 37.9 | 23.8 | > 100 | 38.3 | 41.5 | 24.4 | 72.9 | 28.2 | 94 | 37 |  | 32.3
9 | Cc1ccc(Cc2nn(C)c(=O)n2N)cc1 | > 100 | > 100 | > 100 | > 100 | > 100 | > 100 |  | > 100 | > 100 |  | > 100 | > 100 | > 100 | > 100 |  | > 100 |  | > 100 | > 100 | 
10 | CNC1c2ccccc2C(=O)c2cc3c(cc21)OCCOCCOCCOCCO3 (centres undefined) | > 100 | > 100 | > 100 | > 100 | > 100 |  | 96.2 |  | > 100 | 46.1 | > 100 | > 100 |  | > 100 | > 100 | > 100 | > 100 | > 100 | > 100 | 66.6
11 | COc1ccc(N2C(=O)C3c4[nH]c5ccccc5c4C4CC(C)(C)CC(C)(C)C4C3C2=O)cc1 (centres undefined) | 71.7 | 41.3 | 38.2 |  | 33.2 |  | 25.7 | 30.1 |  | > 100 | 65.5 | 34.8 | 29.3 | > 100 | 54 | > 100 | 31.3 | 41.8 |  | > 100
12 | COc1ccc2c(=O)cc(-c3ccc(OC)c(OC)c3OC)oc2c1 | > 100 | > 100 | > 100 | > 85.7 | > 100 |  | > 100 |  | > 100 | > 31.6 | > 100 | > 100 | > 100 | 53.9 | > 100 | > 100 | > 100 | > 100 | > 100 | > 62.4
13 | CC(=O)OCC1OC(N2C(c3ccccc3)=CC(c3ccco3)C(C#N)=C2S)C(OC(C)=O)C(OC(C)=O)C1OC(C)=O (centres undefined) | 4.2 | 17.9 | 59 | > 100 | 26.2 | 65.4 | > 37.5 | > 63.3 | 37.5 | > 100 | > 67.1 | 28.5 | 24.3 | > 45 | > 57.4 | > 100 | 19.5 | 16.9 | > 53.9 | 
